Columns and labels:
[1] = system: patients with moderate to severe plaque psoriasis; assay: COMFORT-1 phase 3 trial, safety (TEAEs, ECG); conditions: for serious TEAE (number): not considered drug related; for tolerability: 32-week study period
Excerpt: The COMFORT-1 study was a phase 3 multicenter (with sites in Bosnia, Bulgaria, Canada, Israel, Moldova, Poland, Romania, and Serbia) randomized, double-blind, controlled clinical trial in moderate-to-severe plaque psoriasis (ClinicalTrials.gov identifier: NCT03168256). […] Eligible patients were randomly assigned to these arms in a 3:3:3:2 ratio. Blinding was maintained using a double-dummy technique. The second segment (Weeks 16-32) included 3 treatment arms, as at Week 16, the patients in the placebo arm were re-randomized to piclidenoson 2 mg BID, piclidenoson 3 mg BID, or apremilast (dose-titrated over 6 days to 30 mg BID) in a 1:1:1 ratio and treated through Week 32. Those originally assigned to piclidenoson or apremilast remained on their initially assigned treatment through Week 32. Blinding was maintained through Week 32. Patients were evaluated every 2 weeks for efficacy and safety.
Safety assessments included treatment emergent adverse events (TEAEs) and changes in vital signs, physical examination, clinical laboratory tests (liver, kidney, hematology, chemistry, and urinalysis), and electrocardiogramdings.
Overall, 4 analysis populations were defined: The safety population included all patients who received ≥1 dose of piclidenoson; the intent-to-treat (ITT) population included all those in the safety population with at least one PASI score recorded post-BL and excluded patients who withdrew prior to Week 16 due to COVID-19-related study suspension; the modified ITT (mITT) population, which was used for the Week 16 efficacy analyses, included all ITT patients except one patient in the placebo arm who was excluded due to major protocol violations that were not captured in the original data; and lastly, the per protocol (PP) population, which was used for the Week 32 analyses, and included all ITT patients who had no major protocol violations on or before Week 16 and who completed Week 16 of the study. Exclusion from the PP population was finalized prior to any unblinded analyses. The analyses conducted for Week 32 were performed separately for patients who were initially randomized to piclidenoson or apremilast and for those who were initially randomized to the placebo group.
Descriptive statistics were used to summarize patient characteristics and safety. […] If a patient had more than one TEAE with the same PT, the patient was counted once.

[2] = system: patients with moderate to severe plaque psoriasis; assay: COMFORT-1 phase 3 trial, efficacy (PASI, PGA2, PDI); assay type: in vivo, human
[3] = COMFORT-1 phase 3 trial, pharmacokinetics (Cmax, AUC); assay type: in vivo, human; conditions: 2 mg BID arm compared with 3 mg BID arm; Weeks 0, 8, 16
Method: The trial had 2 segments (FIG. 1). […] Blinding was maintained through Week 32.
The primary endpoints included the proportion of patients achieving PASI 75 in the piclidenoson 2 mg and 3 mg BID arms vs. placebo at Week 16 (superiority) and safety. Secondary endpoints at Week 16 compared the piclidenoson arms to placebo and included the proportion of patients achieving PASI 50, the proportion of patients achieving a score of 0 or 1 in PGA2 (a PASI-based measure calculated using the intensity grading of components of the PASI score; specifically, it is the average of the PASI erythema, infiltration, and desquamation scores) [Gordon, K. B. et al. N Engl J Med 373, 136-144 (2015)], and the proportion of patients experiencing an improvement from BL in Psoriasis Disability Index (PDI). Additional secondary endpoints were evaluated at Week 32 and compared the piclidenoson arms to apremilast. These included the proportion of patients achieving PASI 75, PASI 50, PGA2 of 0 or 1, and the proportion of patients experiencing an improvement from BL in PDI. PK analysis, including calculating the peak concentration of the drug in the bloodstream after administration (Cmax), was conducted for Weeks 0, 8, and 16.

[4] = apremilast 30 mg BID, Weeks 0-32, safety population N = 177
[5] = apremilast 30 mg BID, Week 32, PP population
[6] = piclidenoson 2 mg BID, Weeks 0-32, safety population N = 179
[7] = piclidenoson 3 mg BID, Weeks 0-32, safety population N = 173

CCOc1cc([C@@H](CS(C)(=O)=O)N2C(=O)c3cccc(NC(C)=O)c3C2=O)ccc1OC [Apremilast, apremilast, reference compound]
Incidence of TEAE: GI disorders: Any [1, 4]: 7.3%
Incidence of TEAE: Nervous system: Any [1, 4]: 9.6%
serious TEAE (number) ([1]; apremilast 30 mg BID, pneumonia): 1
patients who withdrew from the study due to TEAEs ([1]; apremilast arm, Weeks 0-32): 1
patients achieving improvement from baseline in PDI (number/arm total) [2, 5]: 59/108
proportion of patients achieving PASI 50 [2, 5]: 25.2%
proportion of patients achieving improvement from BL in PDI [2, 5]: 55.1%
proportion of patients with PGA2 of 0 or 1 [2, 5]: 24.3%
proportion of patients achieving PASI 75 ([2]; apremilast 30 mg BID, Week 32, PP population, initially randomized to active treatment): 26.2%

CNC(=O)[C@H]1O[C@@H](n2cnc3c(NCc4cccc(I)c4)ncnc32)[C@H](O)[C@@H]1O [Piclidenoson, methyl 1-[N^6-(3-iodobenzyl)-adenin-9-yl]-β-D-ribofuronamide]
exposure as measured by both Cmax and AUC [3]: similar
safety profile ([1]; 3 mg dose of piclidenoson): excellent and better than apremilast
safety profile compared with placebo ([1]; both piclidenoson dosages, placebo used only Week 0 through Week 16): generally comparable to that of placebo
safety profile compared with apremilast ([1]; piclidenoson 2 mg BID and 3 mg BID): more favorable than that of apremilast
patients who withdrew from the study due to TEAEs ([1]; piclidenoson 2 mg BID arm, Weeks 0-32): 2
tolerability ([1]; piclidenoson 2 mg BID): well-tolerated
Incidence of TEAE: GI disorders: Any [1, 6]: 2.8%
Incidence of TEAE: Infections/infestations: Nasopharyngitis [1, 6]: 2.2%
Incidence of TEAE: Infections/infestations: Urinary tract infection [1, 6]: 3.4%
Incidence of TEAE: Nervous system: Any [1, 6]: 1.7%
serious TEAE (number) ([1]; piclidenoson 2 mg BID, arterial embolism): 1
patients who withdrew from the study due to TEAEs ([1]; piclidenoson 3 mg BID arm, Weeks 0-32): 5
tolerability ([1]; piclidenoson 3 mg BID): well-tolerated
Incidence of TEAE: GI disorders: Any [1, 7]: 1.2%
Incidence of TEAE: Infections/infestations: Nasopharyngitis [1, 7]: 2.9%
Incidence of TEAE: Nervous system: Any [1, 7]: 1.7%
serious TEAE (number) ([1]; piclidenoson 3 mg BID, osteomyelitis): 1
proportion of patients achieving PGA2 (0 or 1) ([2]; piclidenoson 2 mg BID, Week 16, mITT population, p=0.027 vs placebo): 11.8%±2.8%
proportion of patients achieving PASI 50 ([2]; piclidenoson 2 mg BID, Week 16, mITT population, p=0.060 vs placebo): 26.0%
proportion of patients achieving PASI 75 ([2]; piclidenoson 2 mg BID, Week 16, mITT population, p=0.075 vs placebo): 7.9%±2.4%
proportion of patients achieving PDI improvement from BL ([2]; piclidenoson 2 mg BID, Week 16, mITT population, p=0.70 vs placebo): 63.3%
proportion of patients achieving PASI 75 ([2]; piclidenoson 2 mg BID, Week 32, PP population, initially randomized to active treatment, noninferiority vs apremilast p=0.429): 20.8%
proportion of patients with PGA2 of 0 or 1 ([2]; piclidenoson 2 mg BID, Week 32, PP population, noninferiority vs apremilast p=0.417): 18.9%
proportion of patients achieving improvement from BL in PDI ([2]; piclidenoson 2 mg BID, Week 32, PP population, noninferiority vs apremilast p=0.66): 48.1%
proportion of patients achieving PASI 50 ([2]; piclidenoson 2 mg BID, Week 32, PP population, noninferiority vs apremilast p=0.75): 17.0%
proportion of patients achieving PASI 75 ([2]; piclidenoson 3 mg BID, Week 16, mITT population, p=0.037 vs placebo): 9.7%±1.8%
proportion of patients achieving PASI 75 ([2]; piclidenoson 3 mg BID, Week 16, mITT population, p=0.037 vs placebo, listed as piclidenoson): 9.7%
proportion of patients achieving PGA2 (0 or 1) ([2]; piclidenoson 3 mg BID, Week 16, mITT population, p=0.068 vs placebo): 10.7%±3.0%
proportion of patients achieving PASI 50 ([2]; piclidenoson 3 mg BID, Week 16, mITT population, p=0.475 vs placebo): 19.4%
proportion of patients achieving PDI improvement from BL ([2]; piclidenoson 3 mg BID, Week 16, mITT population, p=1.00 vs placebo): 58.3%
patients achieving improvement from baseline in PDI (number/arm total) ([2]; piclidenoson 3 mg BID, Week 32, PP population): 51/88
proportion of patients achieving PASI 75 ([2]; piclidenoson 3 mg BID, Week 32, PP population, initially randomized to active treatment, noninferiority vs apremilast p=0.881): 17.0%
proportion of patients achieving improvement from BL in PDI ([2]; piclidenoson 3 mg BID, Week 32, PP population, noninferiority vs apremilast p=0.072): 58.0%
proportion of patients achieving PASI 50 ([2]; piclidenoson 3 mg BID, Week 32, PP population, noninferiority vs apremilast p=0.49): 19.3%
proportion of patients with PGA2 of 0 or 1 ([2]; piclidenoson 3 mg BID, Week 32, PP population, noninferiority vs apremilast p=0.777): 15.9%

— patent US20250387424A1, “PHARMACEUTICAL COMPOSITION COMPRISING A3 ADENOSINE RECEPTOR AGONIST FOR TREATMENT OF PSORIASIS” (CAN-FITE BIOPHARMA LTD., priority 2022, published 2025)
